Laboratory results taken from ChEMBL document CHEMBL6109156, “Discovery of Dual PD-L1/HDAC3 Inhibitors for Tumor Immunotherapy” (J Med Chem, 2025).
The source made the active and inactive calls. The calls are words filed in the database; no cut-off is given here.

What was measured:
HCT-116 = assay: Antiproliferative activity against human HCT-116 cells assessed as cell growth inhibition incubated for 48 hrs by MTT assay; type: functional, cell-based; conditions: HCT-116, 48 h
B16-F10 [1] = assay: Immunomodulatory activity in mouse B16-F10 cells implanted in C57BL/6J mouse assessed as percentage of CD3 positive CD4 positive cells in tumor at 10 mg/kg, ip administered once daily for 9 days in presence of NP19 by flow cytometric analysis (reference value: 0.20 %); type: functional; conditions: time 9 day
[2] = biological target: T1, Programmed cell death protein 1/Programmed cell death 1 ligand 1 (Homo sapiens, UniProt Q9NZQ7); assay: Inhibition of PD-1/PD-L1 (unknown origin) interaction assessed as inhibition rate at 1 uM by HTRF assay relative to control; type: protein-complex assay
T1 sequence (Q15116 whole entry): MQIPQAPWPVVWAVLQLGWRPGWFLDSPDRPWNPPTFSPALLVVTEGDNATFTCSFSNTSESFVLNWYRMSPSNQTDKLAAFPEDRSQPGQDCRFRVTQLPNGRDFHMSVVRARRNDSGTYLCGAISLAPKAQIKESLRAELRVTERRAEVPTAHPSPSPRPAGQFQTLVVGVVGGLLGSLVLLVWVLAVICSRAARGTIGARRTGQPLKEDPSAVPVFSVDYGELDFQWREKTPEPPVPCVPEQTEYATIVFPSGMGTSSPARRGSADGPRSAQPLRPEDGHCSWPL
T1 sequence (Q9NZQ7 whole entry): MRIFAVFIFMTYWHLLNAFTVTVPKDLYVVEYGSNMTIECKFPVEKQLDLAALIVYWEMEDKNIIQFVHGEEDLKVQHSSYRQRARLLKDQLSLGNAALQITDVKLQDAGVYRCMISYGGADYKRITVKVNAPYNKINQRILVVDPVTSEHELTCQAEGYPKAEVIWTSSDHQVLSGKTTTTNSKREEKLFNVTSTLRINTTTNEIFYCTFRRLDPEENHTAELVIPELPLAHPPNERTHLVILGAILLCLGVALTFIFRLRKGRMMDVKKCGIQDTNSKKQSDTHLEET

B16-F10 [3] = assay: Induction of cell cycle arrest in mouse B16-F10 cells assessed as accumulation of cells at G0/G1 phase at 4 uM incubated for 48 hrs by PI staining based flow cytometry analysis (reference value: 70.09%); type: functional
MDA-MB-231 = assay: Antiproliferative activity against human MDA-MB-231 cells assessed as cell growth inhibition incubated for 48 hrs by MTT assay; type: functional, cell-based; conditions: MDA-MB-231, 48 h
B16-F10 [4] = assay: Immunomodulatory activity in mouse B16-F10 cells implanted in C57BL/6J mouse assessed as percentage of CD3 positive CD8 positive cells in tumor at 10 mg/kg, ip administered once daily for 9 days in presence of NP19 by flow cytometric analysis (reference value: 0.44 %); type: functional; conditions: time 9 day
B16-F10 [5] = assay: Induction of cell cycle arrest in mouse B16-F10 cells assessed as accumulation of cells at S phase at 4 uM incubated for 48 hrs by PI staining based flow cytometry analysis (reference value: 24.04%); type: functional
B16-F10 [6] = assay: Induction of apoptosis in mouse B16-F10 cells assessed as late apoptotic cells at 4 uM incubated for 48 hrs by Annexin V-FITC/PI staining based flow cytometry analysis (reference value: 5.02 %); type: functional
B16-F10 [7] = assay: Induction of apoptosis in mouse B16-F10 cells assessed as viable cells at 4 uM incubated for 48 hrs by Annexin V-FITC/PI staining based flow cytometry analysis (reference value: 92.3%); type: functional; conditions: read-out: Activity
B16-F10 [8] = assay: Induction of apoptosis in mouse B16-F10 cells assessed as necrotic cells at 4 uM incubated for 48 hrs by Annexin V-FITC/PI staining based flow cytometry analysis (reference value: 2.24%); type: functional
B16-F10 [9] = assay: Induction of apoptosis in mouse B16-F10 cells assessed as early apoptotic cells at 4 uM incubated for 48 hrs by Annexin V-FITC/PI staining based flow cytometry analysis (reference value: 0.45 %); type: functional
B16-F10 [10] = assay: Induction of cell cycle arrest in mouse B16-F10 cells assessed as accumulation of cells at G2/M phase at 4 uM incubated for 48 hrs by PI staining based flow cytometry analysis (reference value: 5.87%); type: functional
B16-F10 [11] = assay: Antitumor activity against mouse B16-F10 cells implanted in C57BL/6J mouse assessed as tumor growth inhibition at 20 mg/kg, ip administered once daily for 9 days in presence of NP19; type: functional; conditions: B16-F10, 216 h, time 9 day, read-out: TGI
HepG2 = assay: Antiproliferative activity against human HepG2 cells assessed as cell growth inhibition incubated for 48 hrs by MTT assay; type: functional, cell-based; conditions: HepG2, 48 h
A-375 = assay: Antiproliferative activity against human A-375 cells assessed as cell growth inhibition incubated for 48 hrs by MTT assay; type: functional, cell-based; conditions: A-375, 48 h
Histone deacetylase 3 = Histone deacetylase 3 (Homo sapiens, UniProt O15379); assay: Inhibition of human recombinant HDAC3 using Ac-Leu-Gly-Lys (Ac)-AMC as substrate preincubated for 10 mins followed by substrate addition and measured after 45 mins by TECAN microtiter plate reader analysis
Chain of Histone deacetylase 3 (O15379 whole entry): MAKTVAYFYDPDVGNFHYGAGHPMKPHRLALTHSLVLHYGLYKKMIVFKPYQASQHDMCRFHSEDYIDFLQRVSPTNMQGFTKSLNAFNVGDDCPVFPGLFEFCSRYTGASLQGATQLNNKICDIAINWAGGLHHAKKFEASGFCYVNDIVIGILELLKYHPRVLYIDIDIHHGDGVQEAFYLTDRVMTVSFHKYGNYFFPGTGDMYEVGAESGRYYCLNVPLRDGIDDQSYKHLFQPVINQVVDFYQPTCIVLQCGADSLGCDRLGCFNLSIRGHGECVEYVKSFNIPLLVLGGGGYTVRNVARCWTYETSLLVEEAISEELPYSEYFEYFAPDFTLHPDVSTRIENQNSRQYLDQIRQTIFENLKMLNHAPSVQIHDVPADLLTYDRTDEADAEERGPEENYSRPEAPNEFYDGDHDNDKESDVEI

B16-F10 [12] = assay: Antitumor activity against mouse B16-F10 cells implanted in C57BL/6J mouse assessed as tumor growth inhibition at 20 mg/kg, ip administered once daily for 9 days; type: functional; conditions: B16-F10, 216 h, time 9 day, read-out: TGI
[13] = biological target: T2, Histone deacetylase 3 (Mus musculus) (UniProt O88895); assay: Inhibition of HDAC3 in mouse B16-F10 cells assessed as upregulation of Ac-H3 level at 3 uM incubated for 24 hrs by Western blotting analysis; type: cell-based
T2 sequence (whole entry): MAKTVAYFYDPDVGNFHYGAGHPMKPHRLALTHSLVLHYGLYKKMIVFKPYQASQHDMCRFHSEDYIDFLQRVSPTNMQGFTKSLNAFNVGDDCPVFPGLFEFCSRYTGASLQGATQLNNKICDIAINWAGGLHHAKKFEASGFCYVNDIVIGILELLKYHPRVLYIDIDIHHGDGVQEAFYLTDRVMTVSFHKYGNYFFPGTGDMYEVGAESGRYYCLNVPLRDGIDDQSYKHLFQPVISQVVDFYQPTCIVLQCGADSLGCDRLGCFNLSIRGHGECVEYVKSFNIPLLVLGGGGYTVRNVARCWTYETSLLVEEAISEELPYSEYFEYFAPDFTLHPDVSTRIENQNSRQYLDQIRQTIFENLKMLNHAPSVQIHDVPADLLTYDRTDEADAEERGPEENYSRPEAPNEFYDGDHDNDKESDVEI

[14] = Toxicity in C57BL/6J mouse implanted with mouse B16-F10 cells assessed as animal death at 20 mg/kg, ip administered once daily for 5 days in presence of MS-275; type: organism-based; conditions: in vivo, 120 h, time 5 day
B16-F10 [15] = assay: Immunomodulatory activity in mouse B16-F10 cells implanted in C57BL/6J mouse assessed as percentage of CD3 positive CD8 positive cells in tumor at 10 mg/kg, ip administered once daily for 9 days in presence of MS-275 by flow cytometric analysis (reference value: 0.44 %); type: functional; conditions: time 9 day
B16-F10 [16] = assay: Immunomodulatory activity in mouse B16-F10 cells implanted in C57BL/6J mouse assessed as percentage of CD3 positive CD4 positive cells in tumor at 20 mg/kg, ip administered once daily for 9 days by flow cytometric analysis (reference value: 0.20 %); type: functional; conditions: time 9 day
[17] = biological target: T1, Programmed cell death protein 1/Programmed cell death 1 ligand 1; assay: Inhibition of PD-1/PD-L1 (unknown origin) interaction assessed as inhibition rate by HTRF assay; type: protein-complex assay
[18] = Toxicity in C57BL/6J mouse implanted with mouse B16-F10 cells assessed as body weight loss at 20 mg/kg, ip administered once daily for 9 days; type: organism-based; conditions: in vivo, 216 h, time 9 day
B16-F10 [19] = assay: Antitumor activity against mouse B16-F10 cells implanted in C57BL/6J mouse assessed as tumor growth inhibition at 20 mg/kg, ip administered once daily for 9 days in presence of MS-275; type: functional; conditions: B16-F10, 216 h, time 9 day, read-out: TGI
4T1 = assay: Antiproliferative activity against mouse 4T1 cells assessed as cell growth inhibition incubated for 48 hrs by MTT assay; type: functional, cell-based; conditions: 4T1, 48 h
[20] = Toxicity in C57BL/6J mouse implanted with mouse B16-F10 cells assessed as body weight loss at 20 mg/kg, ip administered once daily for 5 days in presence of MS-275; type: organism-based; conditions: in vivo, 120 h, time 5 day
B16-F10 [21] = assay: Immunomodulatory activity in mouse B16-F10 cells implanted in C57BL/6J mouse assessed as percentage of CD3 positive CD4 positive cells in tumor at 10 mg/kg, ip administered once daily for 9 days in presence of MS-275 by flow cytometric analysis (reference value: 0.20 %); type: functional; conditions: time 9 day
B16-F10 [22] = assay: Antiproliferative activity against mouse B16-F10 cells assessed as cell growth inhibition incubated for 48 hrs by MTT assay; type: functional, cell-based; conditions: B16-F10, 48 h
B16-F10 [23] = assay: Immunomodulatory activity in mouse B16-F10 cells implanted in C57BL/6J mouse assessed as percentage of CD3 positive CD8 positive cells in tumor at 20 mg/kg, ip administered once daily for 9 days by flow cytometric analysis (reference value: 0.44 %); type: functional; conditions: time 9 day

SMILES	IC50 (HCT-116) [µM]	IC50 [2] [µM]	Activity (B16-F10 [3]) [%]	IC50 (MDA-MB-231) [µM]	Activity (B16-F10 [5]) [%]	Activity (B16-F10 [6]) [%]	viability at 4 µM (B16-F10 [7]) [%]	Activity (B16-F10 [8]) [%]	Activity (B16-F10 [9]) [%]	Activity (B16-F10 [10]) [%]	IC50 (HepG2) [µM]	IC50 (A-375) [µM]	other results
Nc1ccccc1NC(=O)c1ccc(CNC(=O)OCc2cccnc2)cc1 [ENTINOSTAT]	3.54	> 10	87.62	30.3	5.79	12.8	74.5	5.25	7.43	6.59	6.32	4.91	Activity (B16-F10 [1]): 1.89%; Activity (B16-F10 [4]): 3.34%; inhibition in vivo at 20 mg/kg (B16-F10 [11]): 37%
Cc1c(COc2cc(OCc3cccc(C#N)c3)c(CNC(C)(C)C(=O)O)cc2Cl)cccc1-c1ccccc1	> 50	0.0683	70.67	> 50	24.28	3.95	93.6	1.96	0.47	5.05	> 50	> 50	IC50 (Histone deacetylase 3): > 10 µM; inhibition in vivo at 20 mg/kg (B16-F10 [12]): 30.8%; inhibition [13]: inactive; Activity [14]: Toxic; Activity (B16-F10 [15]): 3.34%; Activity (B16-F10 [16]): 0.78%; IC50 [17]: 0.0683 µM; Activity [18]: Non-toxic; inhibition in vivo at 20 mg/kg (B16-F10 [19]): 37%; IC50 (4T1): > 50 µM; Activity [20]: Toxic; Activity (B16-F10 [21]): 1.89%; IC50 (B16-F10 [22]): > 50 µM; Activity (B16-F10 [23]): 2.68%
